Source: the NIST ThermoML archive (doi:10.1021/je050544m)
Numbers after ± are expanded uncertainties.

Experiment: activity coefficient (dimensionless); of the first substance listed, at infinite dilution; xn = mol fraction of the nth substance listed
Settings: 101 kPa, Liquid, x1 = 0

SMILES	activity coefficient (323 K, Chromatography)	activity coefficient (343 K, Chromatography)	activity coefficient (303 K, Chromatography)	activity coefficient (303 K, Differential ebulliometry)	activity coefficient (323 K, Differential ebulliometry)	activity coefficient (343 K, Differential ebulliometry)
ClCCCl [1,2-dichloroethane] + CCCCCCCC[n+]1ccn(C)c1.F[B-](F)(F)F	0.93 ± 0.09	0.95 ± 0.1	–	–	–	–
ClCCCl [1,2-dichloroethane] + CCCCCCn1cc[n+](C)c1.F[B-](F)(F)F	1.06 ± 0.11	1.19 ± 0.12	–	–	–	–
ClCCCl [1,2-dichloroethane] + CCCCn1cc[n+](C)c1.F[B-](F)(F)F	1.51 ± 0.16	1.63 ± 0.17	–	–	–	–
ClCCCl [1,2-dichloroethane] + CCn1cc[n+](C)c1.F[B-](F)(F)F	1.32 ± 0.14	1.37 ± 0.14	–	–	–	–
CC(C)CC(C)(C)C [2,2,4-trimethylpentane] + CCCCCCCC[n+]1ccn(C)c1.F[B-](F)(F)F	17.7 ± 1.9	17 ± 1.8	–	–	–	–
CC(C)CC(C)(C)C [2,2,4-trimethylpentane] + CCCCCCn1cc[n+](C)c1.F[B-](F)(F)F	–	44.5 ± 4.7	54.1 ± 5.7	–	–	–
CC(C)CC(C)(C)C [2,2,4-trimethylpentane] + CCCCn1cc[n+](C)c1.F[B-](F)(F)F	127 ± 13	125 ± 13	145 ± 15	–	–	–
CC(C)CC(C)(C)C [2,2,4-trimethylpentane] + CCn1cc[n+](C)c1.F[B-](F)(F)F	168 ± 18	162 ± 17	222 ± 23	–	–	–
CC(C)=O [acetone] + CCCCCCCC[n+]1ccn(C)c1.F[B-](F)(F)F	0.78 ± 0.08	0.83 ± 0.09	–	–	–	–
CC(C)=O [acetone] + CCCCCCn1cc[n+](C)c1.F[B-](F)(F)F	0.85 ± 0.09	0.91 ± 0.09	–	–	–	–
CC(C)=O [acetone] + CCCCn1cc[n+](C)c1.F[B-](F)(F)F	1.05 ± 0.11	1.11 ± 0.11	–	–	–	–
CC(C)=O [acetone] + CCn1cc[n+](C)c1.F[B-](F)(F)F	1.11 ± 0.11	1.14 ± 0.12	–	–	–	–
c1ccccc1 [benzene] + CCCCCCCC[n+]1ccn(C)c1.F[B-](F)(F)F	1.29 ± 0.13	1.29 ± 0.13	1.28 ± 0.13	–	–	–
c1ccccc1 [benzene] + CCCCCCn1cc[n+](C)c1.F[B-](F)(F)F	1.65 ± 0.17	1.68 ± 0.18	1.63 ± 0.17	–	–	–
c1ccccc1 [benzene] + CCCCn1cc[n+](C)c1.F[B-](F)(F)F	2.43 ± 0.26	2.48 ± 0.26	2.39 ± 0.25	–	–	–
c1ccccc1 [benzene] + CCn1cc[n+](C)c1.F[B-](F)(F)F	2.51 ± 0.26	2.47 ± 0.26	2.42 ± 0.25	–	–	–
CCC(C)=O [butanone] + CCCCCCCC[n+]1ccn(C)c1.F[B-](F)(F)F	1.01 ± 0.1	1.04 ± 0.11	–	–	–	–
CCC(C)=O [butanone] + CCCCCCn1cc[n+](C)c1.F[B-](F)(F)F	1.14 ± 0.12	1.21 ± 0.12	–	–	–	–
CCC(C)=O [butanone] + CCCCn1cc[n+](C)c1.F[B-](F)(F)F	1.64 ± 0.17	1.72 ± 0.18	–	–	–	–
CCC(C)=O [butanone] + CCn1cc[n+](C)c1.F[B-](F)(F)F	1.66 ± 0.17	1.77 ± 0.18	–	–	–	–
C1CCCCC1 [cyclohexane] + CCCCCCCC[n+]1ccn(C)c1.F[B-](F)(F)F	7.99 ± 0.84	7.36 ± 0.77	8.52 ± 0.9	–	–	–
C1CCCCC1 [cyclohexane] + CCCCCCn1cc[n+](C)c1.F[B-](F)(F)F	–	–	–	18.6 ± 1.9	16.5 ± 1.6	15.2 ± 1.5

SMILES	activity coefficient (323 K, Chromatography)	activity coefficient (343 K, Chromatography)	activity coefficient (303 K, Chromatography)	activity coefficient (303 K, Differential ebulliometry)	activity coefficient (323 K, Differential ebulliometry)	activity coefficient (343 K, Differential ebulliometry)
C1CCCCC1 [cyclohexane] + CCCCn1cc[n+](C)c1.F[B-](F)(F)F	38.4 ± 4	32.8 ± 3.5	44.9 ± 4.7	–	–	–
C1CCCCC1 [cyclohexane] + CCn1cc[n+](C)c1.F[B-](F)(F)F	46.2 ± 4.9	38.9 ± 4.1	53.7 ± 5.7	–	–	–
CCOCC [diethyl ether] + CCCCCCCC[n+]1ccn(C)c1.F[B-](F)(F)F	3.2 ± 0.34	3.39 ± 0.36	–	–	–	–
CCOCC [diethyl ether] + CCCCCCn1cc[n+](C)c1.F[B-](F)(F)F	–	2.53 ± 0.27	–	–	–	–
CCOCC [diethyl ether] + CCCCn1cc[n+](C)c1.F[B-](F)(F)F	–	8.05 ± 0.85	–	–	–	–
CCO [ethanol] + CCCCCCCC[n+]1ccn(C)c1.F[B-](F)(F)F	1.24 ± 0.13	1.1 ± 0.11	–	–	–	–
CCO [ethanol] + CCCCCCn1cc[n+](C)c1.F[B-](F)(F)F	1.47 ± 0.15	1.31 ± 0.13	–	–	–	–
CCO [ethanol] + CCCCn1cc[n+](C)c1.F[B-](F)(F)F	1.91 ± 0.2	1.63 ± 0.17	–	–	–	–
CCO [ethanol] + CCn1cc[n+](C)c1.F[B-](F)(F)F	0.76 ± 0.08	–	–	–	–	–
CCOC(C)=O [ethyl acetate] + CCCCCCCC[n+]1ccn(C)c1.F[B-](F)(F)F	1.55 ± 0.16	1.62 ± 0.17	–	–	–	–
CCOC(C)=O [ethyl acetate] + CCCCCCn1cc[n+](C)c1.F[B-](F)(F)F	5.58 ± 0.59	5.48 ± 0.58	–	–	–	–
CCOC(C)=O [ethyl acetate] + CCCCn1cc[n+](C)c1.F[B-](F)(F)F	2.86 ± 0.3	2.99 ± 0.31	–	–	–	–
CCOC(C)=O [ethyl acetate] + CCn1cc[n+](C)c1.F[B-](F)(F)F	3.08 ± 0.32	3.32 ± 0.35	–	–	–	–
CCc1ccccc1 [ethylbenzene] + CCCCCCCC[n+]1ccn(C)c1.F[B-](F)(F)F	2.35 ± 0.25	2.66 ± 0.28	–	–	–	–
CCc1ccccc1 [ethylbenzene] + CCCCCCn1cc[n+](C)c1.F[B-](F)(F)F	3.63 ± 0.38	4.05 ± 0.43	–	–	–	–
CCc1ccccc1 [ethylbenzene] + CCCCn1cc[n+](C)c1.F[B-](F)(F)F	6.65 ± 0.7	7.2 ± 0.76	–	–	–	–
CCc1ccccc1 [ethylbenzene] + CCn1cc[n+](C)c1.F[B-](F)(F)F	7.05 ± 0.74	6.87 ± 0.72	–	–	–	–
CCCCCCC [heptane] + CCCCCCCC[n+]1ccn(C)c1.F[B-](F)(F)F	16.3 ± 1.7	15.2 ± 1.6	16.7 ± 1.8	–	–	–
CCCCCCC [heptane] + CCCCCCn1cc[n+](C)c1.F[B-](F)(F)F	39.9 ± 4.2	33.6 ± 3.5	47.7 ± 5	–	–	–
CCCCCCC [heptane] + CCCCn1cc[n+](C)c1.F[B-](F)(F)F	115 ± 12	99 ± 10	134 ± 14	–	–	–
CCCCCCC [heptane] + CCn1cc[n+](C)c1.F[B-](F)(F)F	173 ± 18	139 ± 15	202 ± 21	–	–	–
C=CCCCC [hex-1-ene] + CCCCCCCC[n+]1ccn(C)c1.F[B-](F)(F)F	7.51 ± 0.79	7.42 ± 0.78	7.92 ± 0.83	–	–	–

SMILES	activity coefficient (323 K, Chromatography)	activity coefficient (343 K, Chromatography)	activity coefficient (303 K, Chromatography)	activity coefficient (303 K, Differential ebulliometry)	activity coefficient (323 K, Differential ebulliometry)	activity coefficient (343 K, Differential ebulliometry)
C=CCCCC [hex-1-ene] + CCCCCCn1cc[n+](C)c1.F[B-](F)(F)F	14.8 ± 1.6	14.8 ± 1.6	15.9 ± 1.7	–	–	–
C=CCCCC [hex-1-ene] + CCCCn1cc[n+](C)c1.F[B-](F)(F)F	32.2 ± 3.4	30.5 ± 3.2	35.4 ± 3.7	–	–	–
C=CCCCC [hex-1-ene] + CCn1cc[n+](C)c1.F[B-](F)(F)F	43.2 ± 4.5	36.6 ± 3.9	46.2 ± 4.9	–	–	–
CCCCCC [hexane] + CCCCCCCC[n+]1ccn(C)c1.F[B-](F)(F)F	12.8 ± 1.4	12.2 ± 1.3	13.2 ± 1.4	–	–	–
CCCCCC [hexane] + CCCCCCn1cc[n+](C)c1.F[B-](F)(F)F	29.6 ± 3.1	26.1 ± 2.7	34.8 ± 3.7	–	–	–
CCCCCC [hexane] + CCCCn1cc[n+](C)c1.F[B-](F)(F)F	76.5 ± 8.1	67.5 ± 7.1	93.4 ± 9.8	–	–	–
CCCCCC [hexane] + CCn1cc[n+](C)c1.F[B-](F)(F)F	113 ± 12	64.8 ± 6.8	125 ± 13	–	–	–
CO [methanol] + CCCCCCCC[n+]1ccn(C)c1.F[B-](F)(F)F	0.94 ± 0.1	0.85 ± 0.09	1.09 ± 0.11	–	–	–
CO [methanol] + CCCCCCn1cc[n+](C)c1.F[B-](F)(F)F	1.08 ± 0.11	0.99 ± 0.1	1.19 ± 0.12	–	–	–
CO [methanol] + CCCCn1cc[n+](C)c1.F[B-](F)(F)F	1.21 ± 0.12	1.07 ± 0.11	1.32 ± 0.14	–	–	–
CO [methanol] + CCn1cc[n+](C)c1.F[B-](F)(F)F	0.43 ± 0.05	0.42 ± 0.05	0.43 ± 0.05	–	–	–
CCCO [propan-1-ol] + CCCCCCCC[n+]1ccn(C)c1.F[B-](F)(F)F	1.44 ± 0.15	1.27 ± 0.13	–	–	–	–
CCCO [propan-1-ol] + CCCCCCn1cc[n+](C)c1.F[B-](F)(F)F	1.86 ± 0.19	1.63 ± 0.17	–	–	–	–
CCCO [propan-1-ol] + CCCCn1cc[n+](C)c1.F[B-](F)(F)F	2.64 ± 0.28	2.28 ± 0.24	–	–	–	–
CCCO [propan-1-ol] + CCn1cc[n+](C)c1.F[B-](F)(F)F	0.95	0.87	–	–	–	–
CC(C)O [propan-2-ol] + CCCCCCCC[n+]1ccn(C)c1.F[B-](F)(F)F	1.41 ± 0.15	1.27 ± 0.13	–	–	–	–
CC(C)O [propan-2-ol] + CCCCCCn1cc[n+](C)c1.F[B-](F)(F)F	1.61 ± 0.17	1.57 ± 0.16	–	–	–	–
CC(C)O [propan-2-ol] + CCCCn1cc[n+](C)c1.F[B-](F)(F)F	2.47 ± 0.11	2.17 ± 0.1	–	–	–	–
CC(C)O [propan-2-ol] + CCn1cc[n+](C)c1.F[B-](F)(F)F	1.05 ± 0.11	1.01 ± 0.1	–	–	–	–
ClC(Cl)(Cl)Cl [tetrachloromethane] + CCCCCCCC[n+]1ccn(C)c1.F[B-](F)(F)F	2.39 ± 0.25	2.62 ± 0.28	–	–	–	–
